The conditions of series [1]: cited from earlier work.
Series [2] can be described thus: Solubilization of itraconazole in aqueous acetic acid solutions, visually monitored for dissolution (Example 1). The class given is physicochemical. The following applies: 100 mg itraconazole. The method, then:
Acetic acid solutions were prepared in water to 10%, 20%, 50% and 75% concentrations (expressed as volume glacial acetic acid/total volume of solution ×100). 100 mg itraconazole solute were then mixed independently with 1 ml of each solution and visually monitored for dissolution. If necessary, additional 1 ml aliquots of each acetic acid solution were added until the itraconazole solute was dissolved.

Turning to `CCC(C)n1ncn(-c2ccc(N3CCN(c4ccc(OCC5COC(Cn6cncn6)(c6ccc(Cl)cc6Cl)O5)cc4)CC3)cc2)c1=O` (racemic) [itraconazole], in series [1], the solubility in water entry was “less than 0.00001 g/ml”. In addition, the Solubility result was “Ins” in series [2] (10% acetic acid v:v, 1 ml solvent, cold); “Ins” in series [2] (10% acetic acid v:v, 1 ml solvent, hot); “Ins” in series [2] (10% acetic acid v:v, 2 ml solvent, cold); “Ins” in series [2] (10% acetic acid v:v, 2 ml solvent, hot); “Ins” in series [2] (10% acetic acid v:v, 3 ml solvent, cold); “Ins” in series [2] (10% acetic acid v:v, 3 ml solvent, hot). Besides, the Solubility entry is given as “Ins” in series [2] (10% acetic acid v:v, 4 ml solvent, hot); “Ins” in series [2] (20% acetic acid v:v, 1 ml solvent, cold); “Ins” in series [2] (20% acetic acid v:v, 1 ml solvent, hot); “Ins” in series [2] (20% acetic acid v:v, 2 ml solvent, cold); “Ins” in series [2] (20% acetic acid v:v, 2 ml solvent, hot); “Ins” in series [2] (20% acetic acid v:v, 3 ml solvent, cold). Further, the Solubility result in series [2] (20% acetic acid v:v, 3 ml solvent, hot) is “Part”; in series [2] (50% acetic acid v:v, 1 ml solvent, cold), “Ins”; in series [2] (50% acetic acid v:v, 1 ml solvent, hot), “Ins”; in series [2] (50% acetic acid v:v, 2 ml solvent, cold), “Ins”; in series [2] (50% acetic acid v:v, 2 ml solvent, hot) it was “Sol”; in series [2] (50% acetic acid v:v, 3 ml solvent, cold) it was “Ins”. Also, in series [2] (75% acetic acid v:v, 1 ml solvent, cold), the Solubility result is “Sol”.

Values taken from patent US6461545B1, “Method of solubilizing and encapsulating itraconazole” (Emisphere Technologies, Inc., priority 1995, dated 2002).
